System: NCI-H1876 complex spheroid growth, % test/control
Test: Anticancer human tumor NCI-H1876 cell line growth inhibition [Asc];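 note: compound exposure lasted 7 days starting three days after seeding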;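 for viability, T/C: 100% = DMSO vehicle control wells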
Details: for IC50: curve of first compound; for viability, T/C: stronger effect = lower value; active = viability on the fitted dose curve at most 10% of control; inactive = the rest
Method in brief: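 Complex solid-tumor spheroids incorporating human endothelial and mesenchymal stem cells received single agents or combinations over half-log dilution ranges anchored to clinical Cmax.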

[1] = second compound 0.00316 µM, first compound 0.0316 µM
[2] = second compound 0.00316 µM, first compound 0.1 µM
[3] = second compound 0.00316 µM, first compound 0.316 µM
[4] = second compound 0.00316 µM, first compound 1 µM
[5] = second compound 0.01 µM, first compound 0.0316 µM
[6] = second compound 0.01 µM, first compound 0.1 µM
[7] = second compound 0.01 µM, first compound 0.316 µM
[8] = second compound 0.01 µM, first compound 1 µM
[9] = second compound 0.0316 µM, first compound 0.0316 µM
[10] = second compound 0.0316 µM, first compound 0.1 µM
[11] = second compound 0.0316 µM, first compound 0.316 µM
[12] = second compound 0.0316 µM, first compound 1 µM
[13] = second compound 0.1 µM, first compound 0.0316 µM
[14] = second compound 0.1 µM, first compound 0.1 µM
[15] = second compound 0.1 µM, first compound 0.316 µM
[16] = second compound 0.1 µM, first compound 1 µM
[17] = second compound 0.316 µM, first compound 0.0316 µM
[18] = second compound 0.316 µM, first compound 0.1 µM
[19] = second compound 0.316 µM, first compound 0.316 µM
[20] = second compound 0.316 µM, first compound 1 µM
[21] = second compound 1 µM, first compound 0.0316 µM
[22] = second compound 1 µM, first compound 0.1 µM
[23] = second compound 1 µM, first compound 0.316 µM
[24] = second compound 1 µM, first compound 1 µM

C=CC(=O)N1CCN(c2nc(=O)n(-c3c(C)ccnc3C(C)C)c3nc(-c4c(O)cccc4F)c(F)cc23)C(C)C1 (centres undefined) + CNC(C)C(=O)NC1CN(S(=O)(=O)c2cccc(S(=O)(=O)N3CCC4CCC(C(=O)NC(c5ccccc5)c5ccccc5)N4C(=O)C(NC(=O)C(C)NC)C3)c2)CCC2CCC(C(=O)NC(c3ccccc3)c3ccccc3)N2C1=O
inactive: viability, T/C [1] 103% | viability, T/C [2] 87.6% | viability, T/C [3] 115% | viability, T/C [4] 94.9% | viability, T/C (second compound 0.00316 µM, first compound 3.16 µM) 121% | viability, T/C (second compound 0.00316 µM, first compound 10 µM) 131% | viability, T/C [5] 104% | viability, T/C [6] 99% | viability, T/C [7] 99.1% | viability, T/C [8] 99.3% | viability, T/C (second compound 0.01 µM, first compound 3.16 µM) 107% | viability, T/C (second compound 0.01 µM, first compound 10 µM) 111% | viability, T/C [9] 102% | viability, T/C [10] 101% | viability, T/C [11] 121% | viability, T/C [12] 102% | viability, T/C (second compound 0.0316 µM, first compound 3.16 µM) 116% | viability, T/C (second compound 0.0316 µM, first compound 10 µM) 114% | viability, T/C [13] 100% | viability, T/C [14] 106% | viability, T/C [15] 104% | viability, T/C [16] 106% | viability, T/C (second compound 0.1 µM, first compound 3.16 µM) 114% | viability, T/C (second compound 0.1 µM, first compound 10 µM) 106% | viability, T/C [17] 114% | viability, T/C [18] 101% | viability, T/C [19] 100% | viability, T/C [20] 101% | viability, T/C (second compound 0.316 µM, first compound 3.16 µM) 115% | viability, T/C (second compound 0.316 µM, first compound 10 µM) 109% | viability, T/C [21] 111% | viability, T/C [22] 91.9% | viability, T/C [23] 118% | viability, T/C [24] 113% | viability, T/C (second compound 1 µM, first compound 3.16 µM) 116% | viability, T/C (second compound 1 µM, first compound 10 µM) 117%
> 10000 nM: IC50 (second compound 0.00316 µM) | IC50 (second compound 0.01 µM) | IC50 (second compound 0.0316 µM) | IC50 (second compound 0.1 µM) | IC50 (second compound 0.316 µM) | IC50 (second compound 1 µM)

COc1c(OCCCN2CCOCC2)ccc2c3n(c(=NC(=O)c4cnc(N)nc4)nc12)CCN3 + CNC(C)C(=O)NC1CN(S(=O)(=O)c2cccc(S(=O)(=O)N3CCC4CCC(C(=O)NC(c5ccccc5)c5ccccc5)N4C(=O)C(NC(=O)C(C)NC)C3)c2)CCC2CCC(C(=O)NC(c3ccccc3)c3ccccc3)N2C1=O
789 nM: IC50 (second compound 0.0316 µM)
> 1000 nM: IC50 (second compound 0.00316 µM) | IC50 (second compound 0.316 µM)
701 nM: IC50 (second compound 0.1 µM)
inactive: viability, T/C (second compound 0.00316 µM, first compound 0.00316 µM) 106% | viability, T/C (second compound 0.00316 µM, first compound 0.01 µM) 107% | viability, T/C [1] 103% | viability, T/C [2] 81.5% | viability, T/C [3] 64.5% | viability, T/C [4] 49.2% | viability, T/C (second compound 0.01 µM, first compound 0.00316 µM) 105% | viability, T/C (second compound 0.01 µM, first compound 0.01 µM) 106% | viability, T/C [5] 107% | viability, T/C [6] 82.1% | viability, T/C [7] 63.3% | viability, T/C [8] 45% | viability, T/C (second compound 0.0316 µM, first compound 0.00316 µM) 100% | viability, T/C (second compound 0.0316 µM, first compound 0.01 µM) 103% | viability, T/C [9] 99.4% | viability, T/C [10] 84.1% | viability, T/C [11] 62.5% | viability, T/C [12] 46.7% | viability, T/C (second compound 0.1 µM, first compound 0.00316 µM) 102% | viability, T/C (second compound 0.1 µM, first compound 0.01 µM) 101% | viability, T/C [13] 98.6% | viability, T/C [14] 82.3% | viability, T/C [15] 63.8% | viability, T/C [16] 44% | viability, T/C (second compound 0.316 µM, first compound 0.00316 µM) 107% | viability, T/C (second compound 0.316 µM, first compound 0.01 µM) 117% | viability, T/C [17] 93.6% | viability, T/C [18] 86.2% | viability, T/C [19] 70% | viability, T/C [20] 56.4% | viability, T/C (second compound 1 µM, first compound 0.00316 µM) 105% | viability, T/C (second compound 1 µM, first compound 0.01 µM) 109% | viability, T/C [21] 96.6% | viability, T/C [22] 86.2% | viability, T/C [23] 67.5% | viability, T/C [24] 48.2%
734 nM: IC50 (second compound 0.01 µM)
901 nM: IC50 (second compound 1 µM)

Source: PubChem BioAssay AID1963441 (Molecular Pharmacology Branch, DTP, NCI, 2024)
